Test results: article PMC11256175 (Bioengineering & Translational Medicine, 2024)
Values after ≈ are worked out from the molar mass of the structure shown. “Also recorded” adds a separate entry of the source. Like-named read-outs stand apart in the source and are kept apart here. Each block holds one molecule with its values, some of them ahead of it.

Experiments:
[1] = parameters: method as in earlier work; conditions: mice and rats; cited from earlier work
[2] = phosphate‐buffered saline [PBS], pH 7.4; cited from earlier work
[3] = Solubility of EV‐P in phosphate buffer and dissolution medium; type: physicochemical
[4] = Equilibrium solubility of EV‐P in injectable oily vehicles (HPLC); type: physicochemical; conditions: for solubility at 3 days: 25°C, stored over 3 days, mean ± SD (n = 3)
Description: […] […] […] […] The EV‐P concentration in the sample was analyzed using Waters HPLC system (Model 515 pump, Model 486 UV‐VIS detector, and Model 717 plus autosampler, Waters, Milford, MA, USA) equipped with a reversed‐phase C18 column (4.6 × 150 mm, 5 μm, Shiseido). The mobile phase for EV‐P analysis consisted of 2‐propanol and deionized distilled water at a volume ratio of 6:4. The flow rate of the mobile phase and detection wavelength were 1.0 mL/min and 253 nm, respectively, and the elution time of EV‐P was 5.3 min. The calibration curve was linear in the range of 1–100 μg/mL and the limit of detection (LOD) and limit of quantitation (LOQ) values were calculated as 0.5 μg/mL and 1.5 μg/mL, respectively.

[5] = Dispersibility of EV‐P particles in oily vehicles (visual); type: physicochemical; conditions: after 3 days storage at 25°C, EV‐P 9.0 mg/mL
Description: Pulverized EV‐P powder (5 mg as EV) was added to injectable oil vehicles (1 mL) in an Eppendorf tube. The mixture was then vortexed for 10 min using a multi‐vortex (Vortex Genie 2, Scientific Industries, Chicago, IL, USA) and then shaken for 3 h at 25°C in a shaking incubator (model BF‐60SIRL, Bio Free, Seoul, Korea). Then, the dispersibility of EV‐P particles in different oily vehicles was visually evaluated. […] The EV‐P concentration in the sample was analyzed using Waters HPLC system (Model 515 pump, Model 486 UV‐VIS detector, and Model 717 plus autosampler, Waters, Milford, MA, USA) equipped with a reversed‐phase C18 column (4.6 × 150 mm, 5 μm, Shiseido). The mobile phase for EV‐P analysis consisted of 2‐propanol and deionized distilled water at a volume ratio of 6:4. The flow rate of the mobile phase and detection wavelength were 1.0 mL/min and 253 nm, respectively, and the elution time of EV‐P was 5.3 min. The calibration curve was linear in the range of 1–100 μg/mL and the limit of detection (LOD) and limit of quantitation (LOQ) values were calculated as 0.5 μg/mL and 1.5 μg/mL, respectively.

[6] = parameters: method as in PMID 11672957; conditions: after SC or IM injection in pigs; cited from earlier work
[7] = parameters: method as in PMID 27067365; conditions: pretreatment and intermittent dosing of clodronate; cited from earlier work

SMILES: C=C1[C@H](CO)[C@@H](O)C[C@@H]1n1cnc2c(=O)[nH]c(N)nc21 [EV, entecavir]
Oral doses with minimal acute toxicity [1]: up to 200 mg/kg

solubility ([3]; isopropyl alcohol and distilled water (5:5, v/v) mixture, read-out: Solubility in dissolution medium): > 100 µg/mL
solubility ([3]; phosphate buffer / aqueous media pH 7.4, read-out: Solubility in phosphate buffer (pH 7.4)): 1.1 µg/mL (≈ 2.13 µM)
EV‐P dissolved in OS ([4]; OS designed using tricaprylin and Labrafac, EV‐P concentration of 9.0 mg/mL): less than 1.0 % (w/v)
solubility at 3 days ([4]; in castor oil): 2100 µg/mL (≈ 4070 µM)
solubility at 3 days ([4]; in peanut oil): 1900 µg/mL (≈ 3680 µM)
solubility at 3 days ([4]; oil or lipid, thermodynamic from solid, in Labrafac PG): 110 ± 10 µg/mL (≈ 213 µM)
solubility at 3 days ([4]; oil or lipid, thermodynamic from solid, in Miglyol 812): 620 ± 120 µg/mL (≈ 1200 µM)
solubility at 3 days ([4]; oil or lipid, thermodynamic from solid, in castor oil): 2140 ± 70 µg/mL (≈ 4150 µM)
solubility at 3 days ([4]; oil or lipid, thermodynamic from solid, in cotton seed oil): 980 ± 570 µg/mL (≈ 1900 µM)
solubility at 3 days ([4]; oil or lipid, thermodynamic from solid, in oleic acid): 5900 ± 50 µg/mL (≈ 11400 µM)
solubility at 3 days ([4]; oil or lipid, thermodynamic from solid, in peanut oil): 1950 ± 180 µg/mL (≈ 3780 µM)
solubility at 3 days ([4]; oil or lipid, thermodynamic from solid, in soybean oil): 800 ± 130 µg/mL (≈ 1550 µM)
solubility at 3 days ([4]; oil or lipid, thermodynamic from solid, in tricaprylin): 30 ± 10 µg/mL (≈ 58.2 µM)
Dispersibility ([5]; in Labrafac PG): evenly dispersed
Dispersibility ([5]; in Miglyol 812): Aggregated
Dispersibility ([5]; in castor oil): Aggregated
Dispersibility ([5]; in cotton seed oil): Aggregated
Dispersibility ([5]; in oleic acid): Re‐dispersible
Dispersibility ([5]; in peanut oil): Aggregated
Dispersibility ([5]; in soybean oil): Aggregated
SMILES: C=C1[C@H](COC(=O)CCCCCCCCCCCCCCC)[C@@H](O)C[C@@H]1n1cnc2c(=O)[nH]c(N)nc21 [EV‐P, 2‐amino‐1,9‐dihydro‐9‐[(1S,3R,4S)‐4‐hydroxy‐3‐(hexadecanoyloxymethyl)‐2‐methylenecyclopentyl]‐6H‐purin‐6‐one]
Aqueous solubility [2]: approximately 1.1 μg/mL
Dispersibility ([5]; in tricaprylin): evenly dispersed; also recorded: Re‐dispersible

SMILES: CCCCCCCCCCCCCC(=O)OC(C)C [isopropyl myristate]
Elimination T 1/2 from injection site [6]: approximately 20 days

SMILES: Cc1nc2n(c(=O)c1CCN1CCC(c3noc4cc(F)ccc34)CC1)CCCC2O (centres unmarked) [paliperidone]
AUC after 1 day post‐dosing, times higher than IM injection with no treatment [7]: approximately 2.2 times
C max, times higher than IM injection with no treatment [7]: 1.5 times
